The test system of one series is Peregrinus maidis. Kind of series: Dose response insect-feeding assay for E5 against Peregrinus maidis (sucrose/parafilm membrane, mortality scored after 72 hours). Particulars: adult insects, two replicates. It is filed as in vivo. As to the method: (§1) To test for the insecticidal activity of cyclotide E5 against the target homopteran pests, the lyophilized fractionated samples were placed in 96-well microtiter plates, resuspended in H2O and added to a 20% sucrose solution as detailed below. Parafilm was stretched to just short of its breaking point and used to seal the sucrose/sample reservoir. Adult insects were then added on top of the membrane in a second chamber such that the base of the insect enclosure was the parafilm membrane. The top of the insect chamber was then sealed with plastic wrap and punctured for air exchange. The number of insects feeding from each well was determined. The assay was scored after 72 hours and nsecticidal activity was measured based on insect mortality.
(§2) Specifically, for the dose-response assay results shown in Tables 1 and 2, lyophilized RP-HPLC-pure sample was resuspended in 300 μL H2O and added to 20% sucrose in the following volumes: 60, 45, 25, 10, and 5 μL. Two replicates per dose were prepared, including two negative controls. After 72 hours, the wells were scored for insect mortality.

In a further series the test system is Aphis glycines. Nature of the series: Dose response insect-feeding assay for E5 against Aphis glycines (sucrose/parafilm membrane, mortality scored after 72 hours). It is filed as in vivo. Conditions: adult insects, two replicates. As to the method: as §1, §2

Each structure is given as a SMILES string. Where a SMILES comes first, the peptide text is derived from it. Bridges are numbered along the chain shown (N, C = ends).

For `CC[C@H](C)[C@@H]1NC(=O)[C@H](Cc2ccc(O)cc2)NC(=O)[C@H](C(C)C)NC(=O)[C@@H]2CSSC[C@@H]3NC(=O)[C@H](CCCCN)NC(=O)[C@@H]4CSSC[C@H](NC(=O)[C@@H]5CCCN5C(=O)[C@H]([C@@H](C)CC)NC(=O)[C@H](CCCCN)NC(=O)[C@H](CC(N)=O)NC(=O)[C@H](Cc5ccc(O)cc5)NC(=O)[C@H](CSSC[C@H](NC(=O)CNC1=O)C(=O)N[C@@H]([C@@H](C)O)C(=O)N[C@@H](CC(C)C)C(=O)N[C@@H]([C@@H](C)O)C(=O)N[C@@H](C)C(=O)N[C@@H](CC(C)C)C(=O)N[C@@H](C)C(=O)NCC(=O)N4)NC(=O)[C@H](C(C)C)NC(=O)[C@H](CCCCN)NC(=O)[C@H](CC(N)=O)NC(=O)[C@H](CCCCN)NC3=O)C(=O)NCC(=O)N[C@@H](CCC(=O)O)C(=O)N[C@@H](CO)C(=O)N2` [E5] (cyclo(AGCKCKNKVCYNKIPCGESCVYIGCTLTAL); disulfide 3-16, 5-20, 10-25 (inferred); ring closure inferred), the “average percent (%) insect mortality” value in the series with Peregrinus maidis (E5 concentration 2.73 μM (5 μL)) was 90%; in the series on Peregrinus maidis (E5 concentration 4.09 μM (10 μL)) it was 90%; in the series on Peregrinus maidis (E5 concentration 9.97 μM (25 μL)), 95%; with Peregrinus maidis (E5 concentration 16.61 μM (45 μL)), 100%; in the series on Peregrinus maidis (E5 concentration 33.22 μM (60 μL)), 100%; in the series with Aphis glycines (E5 concentration 6.36 μM (5 μL)) it was 56.5%. Further, the “average percent (%) insect mortality” value in the series on Aphis glycines (E5 concentration 12.73 μM (10 μL)) worked out at 80%; in the series on Aphis glycines (E5 concentration 31.81 μM (25 μL)) it was 75%; in the series on Aphis glycines (E5 concentration 57.26 μM (45 μL)), 95%; with Aphis glycines (E5 concentration 76.35 μM (60 μL)) it was 100%.
